ChEMBL document CHEMBL2401630, “A thienopyrimidine derivative induces growth inhibition and apoptosis in human cancer cell lines via inhibiting Aurora B kinase activity” (Eur J Med Chem, 2013)
Active and inactive are the calls of the source. The calls are words filed in the database; no cut-off is given here.

Assays:
SW-620 [1] = experiment: Induction of apoptosis in human SW620 cells assessed as late apoptotic cells at 10 uM after 48 hrs by Annexin-V staining-based flow cytometry (reference value: 4.52 %); format: functional
SW-620 [2] = experiment: Induction of apoptosis in human SW620 cells assessed as late apoptotic cells at 5 uM after 48 hrs by Annexin-V staining-based flow cytometry (reference value: 4.52 %); format: functional
CNE = experiment: Cytotoxicity against human CNE cells after 72 hrs by CCK-8 assay; format: functional, cell-based
A549 = experiment: Cytotoxicity against human A549 cells after 72 hrs by CCK-8 assay; format: functional, cell-based; conditions: A549, 72 h
MDA-MB-231 = experiment: Cytotoxicity against human MDA-MB-231 cells after 72 hrs by CCK-8 assay; format: functional, cell-based; conditions: MDA-MB-231, 72 h
HCT-116 = experiment: Cytotoxicity against human HCT116 cells after 72 hrs by CCK-8 assay; format: functional, cell-based; conditions: HCT-116, 72 h
[3] = Cytotoxicity against human Hep3B cells after 72 hrs by CCK-8 assay; format: functional, cell-based, Hep 3B2
SK-HEP1 = experiment: Cytotoxicity against human SKHEP1 cells after 72 hrs by CCK-8 assay; format: functional, cell-based; conditions: SK-HEP1, 72 h
[4] = Cytotoxicity against human PANC cells after 72 hrs by CCK-8 assay; format: functional, cell-based
MCF7 = experiment: Cytotoxicity against human MCF7 cells after 72 hrs by CCK-8 assay; format: functional, cell-based; conditions: MCF7, 72 h
HepG2 = experiment: Cytotoxicity against human HepG2 cells after 72 hrs by CCK-8 assay; format: functional, cell-based; conditions: HepG2, 72 h
HeLa = experiment: Cytotoxicity against human HeLa cells after 72 hrs by CCK-8 assay; format: functional, cell-based
SK-OV-3 = experiment: Cytotoxicity against human SKOV3 cells after 72 hrs by CCK-8 assay; format: functional, cell-based; conditions: SK-OV-3, 72 h
HGC-27 = experiment: Cytotoxicity against human HGC27 cells after 72 hrs by CCK-8 assay; format: functional, cell-based; conditions: HGC-27, 72 h
A-375 = experiment: Cytotoxicity against human A375 cells after 72 hrs by CCK-8 assay; format: functional, cell-based; conditions: A-375, 72 h
PC-3 = experiment: Cytotoxicity against human PC3 cells after 72 hrs by CCK-8 assay; format: functional, cell-based; conditions: PC-3, 72 h
SW-620 [5] = experiment: Cytotoxicity against human SW620 cells after 72 hrs by CCK-8 assay; format: functional, cell-based; conditions: SW-620, 72 h
Aurora kinase B [6] = biological target: T1, Aurora kinase B (Homo sapiens, UniProt Q96GD4); experiment: Inhibition of Aurora B kinase in human HeLa cells assessed as inhibition of Histone H3 phosphorylation after 48 hrs by immuno-fluorescence analysis relative to control; format: cell-based
Aurora kinase B [7] = biological target: T1, Aurora kinase B; experiment: Inhibition of Aurora B kinase in human SW620 cells assessed as inhibition of Histone H3 phosphorylation after 48 hrs by Western blotting analysis; format: cell-based; conditions: SW-620
Aurora kinase B [8] = biological target: T1, Aurora kinase B; experiment: Inhibition of Aurora B kinase phosphorylation in human SW620 cells after 48 hrs by Western blotting analysis; format: cell-based; conditions: SW-620
Aurora kinase B [9] = biological target: T1, Aurora kinase B; experiment: Inhibition of Aurora B kinase phosphorylation in human HepG2 cells after 48 hrs by Western blotting analysis; format: cell-based
Aurora kinase B [10] = biological target: T1, Aurora kinase B; experiment: Inhibition of Aurora B kinase in human HepG2 cells assessed as inhibition of Histone H3 phosphorylation after 48 hrs by Western blotting analysis; format: cell-based
Aurora kinase B [11] = biological target: T1, Aurora kinase B; experiment: Inhibition of Aurora B kinase phosphorylation in human HeLa cells after 48 hrs by Western blotting analysis; format: cell-based
Aurora kinase B [12] = biological target: T1, Aurora kinase B; experiment: Inhibition of Aurora B kinase in human HeLa cells assessed as inhibition of Histone H3 phosphorylation after 48 hrs by Western blotting analysis; format: cell-based
[13] = biological target: RAF proto-oncogene serine/threonine-protein kinase (Homo sapiens) (UniProt P04049); experiment: Inhibition of c-Raf (unknown origin) at 10 uM by Z'-LYTE kinase assay
Homo sapiens = organism: Homo sapiens; experiment: Inhibition of PKA (unknown origin) at 10 uM by Z'-LYTE kinase assay
[14] = biological target: Vascular endothelial growth factor receptor 2 (Homo sapiens) (UniProt P35968); experiment: Inhibition of VEGFR2 (unknown origin) at 10 uM by Z'-LYTE kinase assay
[15] = biological target: Tyrosine-protein kinase receptor UFO (Homo sapiens) (UniProt P30530); experiment: Inhibition of AXL (unknown origin) at 10 uM by Z'-LYTE kinase assay
[16] = biological target: Platelet-derived growth factor receptor beta (Homo sapiens) (UniProt P09619); experiment: Inhibition of PDGFR beta (unknown origin) at 10 uM by Z'-LYTE kinase assay
[17] = biological target: High affinity nerve growth factor receptor (Homo sapiens) (UniProt P04629); experiment: Inhibition of TRKA (unknown origin) at 10 uM by Z'-LYTE kinase assay
[18] = biological target: Proto-oncogene tyrosine-protein kinase receptor Ret (Homo sapiens) (UniProt P07949); experiment: Inhibition of RET (unknown origin) at 10 uM by Z'-LYTE kinase assay
[19] = biological target: Glycogen synthase kinase-3 beta (Homo sapiens) (UniProt P49841); experiment: Inhibition of GSK3 beta (unknown origin) at 10 uM by Z'-LYTE kinase assay
[20] = biological target: Epidermal growth factor receptor (Homo sapiens) (UniProt P00533); experiment: Inhibition of EGFR (unknown origin) at 10 uM by Z'-LYTE kinase assay
[21] = biological target: 5'-AMP-activated protein kinase catalytic subunit alpha-2 (Homo sapiens) (UniProt P54646); experiment: Inhibition of AMPK (unknown origin) at 10 uM by Z'-LYTE kinase assay
[22] = biological target: CDK2/Cyclin A2 (Homo sapiens) (UniProt P24941+P20248); experiment: Inhibition of CDK2/CycA (unknown origin) at 10 uM by Z'-LYTE kinase assay; format: protein-complex assay
[23] = biological target: Serine/threonine-protein kinase PLK1 (Homo sapiens) (UniProt P53350); experiment: Inhibition of PLK1 (unknown origin) at 10 uM by Z'-LYTE kinase assay
[24] = biological target: RAC-alpha serine/threonine-protein kinase (Homo sapiens) (UniProt P31749); experiment: Inhibition of AKT1 (unknown origin) at 10 uM by Z'-LYTE kinase assay
Aurora kinase B [25] = biological target: T1, Aurora kinase B; experiment: Inhibition of Aurora B kinase (unknown origin) at 10 uM by Z'-LYTE kinase assay
[26] = biological target: Aurora kinase A (Homo sapiens) (UniProt O14965); experiment: Inhibition of Aurora A kinase (unknown origin) at 10 uM by Z'-LYTE kinase assay
Aurora kinase B [27] = biological target: T1, Aurora kinase B; experiment: Competitive inhibition of recombinant Aurora B kinase (unknown origin) expressed in Escherichia coli by Z'-LYTE kinase assay in presence of ATP
Aurora kinase B [28] = biological target: T1, Aurora kinase B; experiment: Inhibition of recombinant Aurora B kinase (unknown origin) expressed in Escherichia coli
SW-620 [29] = experiment: Induction of apoptosis in human SW620 cells assessed as late apoptotic cells after 48 hrs by Annexin-V staining-based flow cytometry; format: functional, cell-based
SW-620 [30] = experiment: Cytotoxicity against human SW620 cells at 20 uM incubated for 96 hrs measured after 10 days by colony formation assay relative to control; format: functional
SW-620 [31] = experiment: Cytotoxicity against human SW620 cells at 10 uM incubated for 96 hrs measured after 10 days by colony formation assay relative to control; format: functional
SW-620 [32] = experiment: Growth inhibition in human SW620 cells at 5 to 10 uM incubated for 96 hrs followed by compound washout measured after 48 hrs by CCK-8 assay; format: functional, cell-based
SW-620 [33] = experiment: Growth inhibition in human SW620 cells assessed as cell death at 10 uM incubated for 96 hrs measured after 8 days by CCK-8 assay; format: functional, cell-based
SW-620 [34] = experiment: Growth inhibition in human SW620 cells at 5 to 10 uM after 96 hrs by CCK-8 assay relative to control; format: functional, cell-based
SW-620 [35] = experiment: Induction of apoptosis in human SW620 cells assessed as late apoptotic cells at 20 uM after 48 hrs by Annexin-V staining-based flow cytometry (reference value: 4.52 %); format: functional

T1 sequence (Q96GD4 whole entry): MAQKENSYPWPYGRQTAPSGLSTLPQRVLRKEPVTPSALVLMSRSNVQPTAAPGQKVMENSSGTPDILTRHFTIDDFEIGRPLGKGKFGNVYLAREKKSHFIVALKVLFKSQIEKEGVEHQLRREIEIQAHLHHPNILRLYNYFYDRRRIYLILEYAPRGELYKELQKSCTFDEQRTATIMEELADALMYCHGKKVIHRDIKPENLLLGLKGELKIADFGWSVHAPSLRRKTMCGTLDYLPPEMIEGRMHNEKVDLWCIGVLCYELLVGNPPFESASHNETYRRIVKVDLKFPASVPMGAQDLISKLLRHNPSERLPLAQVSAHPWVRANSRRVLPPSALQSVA
Proto-oncogene tyrosine-protein kinase receptor Ret (Homo sapiens), sequence (P07949 whole entry): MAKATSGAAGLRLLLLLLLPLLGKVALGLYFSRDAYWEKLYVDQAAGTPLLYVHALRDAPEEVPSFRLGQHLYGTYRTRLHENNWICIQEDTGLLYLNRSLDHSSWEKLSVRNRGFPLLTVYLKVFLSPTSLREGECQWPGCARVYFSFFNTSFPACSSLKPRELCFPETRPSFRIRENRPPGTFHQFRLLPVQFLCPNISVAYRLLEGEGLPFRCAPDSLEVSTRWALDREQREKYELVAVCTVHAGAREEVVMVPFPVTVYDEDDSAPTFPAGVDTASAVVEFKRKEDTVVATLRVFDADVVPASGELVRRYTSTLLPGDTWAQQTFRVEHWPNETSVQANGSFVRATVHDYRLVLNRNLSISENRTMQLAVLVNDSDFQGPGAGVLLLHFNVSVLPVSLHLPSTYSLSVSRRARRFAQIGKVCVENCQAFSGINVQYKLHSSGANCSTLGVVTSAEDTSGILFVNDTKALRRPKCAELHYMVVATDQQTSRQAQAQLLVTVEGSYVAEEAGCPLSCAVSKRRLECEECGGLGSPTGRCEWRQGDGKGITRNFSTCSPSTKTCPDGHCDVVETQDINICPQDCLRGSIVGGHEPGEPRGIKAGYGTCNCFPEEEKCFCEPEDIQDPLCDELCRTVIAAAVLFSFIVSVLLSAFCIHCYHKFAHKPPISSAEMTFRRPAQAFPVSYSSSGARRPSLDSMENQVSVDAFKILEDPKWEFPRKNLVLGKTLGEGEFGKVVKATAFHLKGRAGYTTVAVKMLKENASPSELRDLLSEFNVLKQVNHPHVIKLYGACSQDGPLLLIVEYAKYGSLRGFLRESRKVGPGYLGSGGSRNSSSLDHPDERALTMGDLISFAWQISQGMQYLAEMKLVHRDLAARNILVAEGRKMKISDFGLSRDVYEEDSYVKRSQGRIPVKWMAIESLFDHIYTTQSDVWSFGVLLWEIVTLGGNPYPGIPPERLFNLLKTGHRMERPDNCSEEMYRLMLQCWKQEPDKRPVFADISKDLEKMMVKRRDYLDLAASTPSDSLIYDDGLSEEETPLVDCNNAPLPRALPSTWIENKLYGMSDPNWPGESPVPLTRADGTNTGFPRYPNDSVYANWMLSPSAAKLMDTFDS
Aurora kinase A (Homo sapiens), sequence (O14965 whole entry): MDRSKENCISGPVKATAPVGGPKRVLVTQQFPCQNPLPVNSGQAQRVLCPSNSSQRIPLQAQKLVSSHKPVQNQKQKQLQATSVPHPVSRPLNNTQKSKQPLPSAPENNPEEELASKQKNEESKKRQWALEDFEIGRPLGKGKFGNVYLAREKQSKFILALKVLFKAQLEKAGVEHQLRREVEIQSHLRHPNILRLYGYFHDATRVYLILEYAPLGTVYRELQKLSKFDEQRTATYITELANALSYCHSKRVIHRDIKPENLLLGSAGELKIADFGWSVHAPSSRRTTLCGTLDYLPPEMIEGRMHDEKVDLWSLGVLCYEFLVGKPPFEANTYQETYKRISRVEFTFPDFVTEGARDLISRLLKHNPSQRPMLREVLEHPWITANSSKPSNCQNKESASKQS
Glycogen synthase kinase-3 beta (Homo sapiens), sequence (P49841 whole entry, looked up): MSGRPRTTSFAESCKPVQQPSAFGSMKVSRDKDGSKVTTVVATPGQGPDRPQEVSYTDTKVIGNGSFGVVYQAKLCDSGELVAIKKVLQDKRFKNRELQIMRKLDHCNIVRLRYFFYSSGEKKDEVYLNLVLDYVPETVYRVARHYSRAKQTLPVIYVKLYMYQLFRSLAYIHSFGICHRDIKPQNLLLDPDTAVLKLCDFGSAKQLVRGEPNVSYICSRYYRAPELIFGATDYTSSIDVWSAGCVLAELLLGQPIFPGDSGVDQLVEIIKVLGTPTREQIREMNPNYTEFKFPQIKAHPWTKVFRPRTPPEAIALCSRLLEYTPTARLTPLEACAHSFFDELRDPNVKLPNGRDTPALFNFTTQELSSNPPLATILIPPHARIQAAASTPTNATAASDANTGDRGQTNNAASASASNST
Platelet-derived growth factor receptor beta (Homo sapiens), sequence (P09619 whole entry): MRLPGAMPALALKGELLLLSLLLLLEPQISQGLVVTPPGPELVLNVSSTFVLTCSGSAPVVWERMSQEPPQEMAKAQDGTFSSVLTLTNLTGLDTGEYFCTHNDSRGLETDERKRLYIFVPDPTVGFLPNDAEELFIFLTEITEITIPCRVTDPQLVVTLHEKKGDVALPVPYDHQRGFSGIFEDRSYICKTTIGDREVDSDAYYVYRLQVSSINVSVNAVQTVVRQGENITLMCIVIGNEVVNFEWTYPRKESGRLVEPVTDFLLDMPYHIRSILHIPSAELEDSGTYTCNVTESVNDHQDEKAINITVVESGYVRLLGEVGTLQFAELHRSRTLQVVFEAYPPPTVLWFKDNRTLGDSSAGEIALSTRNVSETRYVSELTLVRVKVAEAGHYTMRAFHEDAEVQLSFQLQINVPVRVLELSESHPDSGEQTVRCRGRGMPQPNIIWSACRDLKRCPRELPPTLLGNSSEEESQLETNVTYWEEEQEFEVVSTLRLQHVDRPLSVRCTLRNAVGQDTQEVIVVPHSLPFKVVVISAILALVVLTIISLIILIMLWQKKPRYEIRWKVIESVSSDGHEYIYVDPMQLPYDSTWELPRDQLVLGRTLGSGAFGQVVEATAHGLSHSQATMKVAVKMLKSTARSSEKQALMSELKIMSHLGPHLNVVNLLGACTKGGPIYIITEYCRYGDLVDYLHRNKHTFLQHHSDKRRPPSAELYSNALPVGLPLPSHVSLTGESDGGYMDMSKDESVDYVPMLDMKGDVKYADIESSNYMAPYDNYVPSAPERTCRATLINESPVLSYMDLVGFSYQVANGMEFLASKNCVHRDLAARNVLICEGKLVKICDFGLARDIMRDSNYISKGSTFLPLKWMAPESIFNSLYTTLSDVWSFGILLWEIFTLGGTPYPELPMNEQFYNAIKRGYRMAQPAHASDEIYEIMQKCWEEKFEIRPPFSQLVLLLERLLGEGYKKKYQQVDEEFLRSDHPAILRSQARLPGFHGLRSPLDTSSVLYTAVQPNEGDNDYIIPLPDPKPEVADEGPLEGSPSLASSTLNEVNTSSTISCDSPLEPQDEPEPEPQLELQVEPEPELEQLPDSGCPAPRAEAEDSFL
Tyrosine-protein kinase receptor UFO (Homo sapiens), sequence (P30530 whole entry): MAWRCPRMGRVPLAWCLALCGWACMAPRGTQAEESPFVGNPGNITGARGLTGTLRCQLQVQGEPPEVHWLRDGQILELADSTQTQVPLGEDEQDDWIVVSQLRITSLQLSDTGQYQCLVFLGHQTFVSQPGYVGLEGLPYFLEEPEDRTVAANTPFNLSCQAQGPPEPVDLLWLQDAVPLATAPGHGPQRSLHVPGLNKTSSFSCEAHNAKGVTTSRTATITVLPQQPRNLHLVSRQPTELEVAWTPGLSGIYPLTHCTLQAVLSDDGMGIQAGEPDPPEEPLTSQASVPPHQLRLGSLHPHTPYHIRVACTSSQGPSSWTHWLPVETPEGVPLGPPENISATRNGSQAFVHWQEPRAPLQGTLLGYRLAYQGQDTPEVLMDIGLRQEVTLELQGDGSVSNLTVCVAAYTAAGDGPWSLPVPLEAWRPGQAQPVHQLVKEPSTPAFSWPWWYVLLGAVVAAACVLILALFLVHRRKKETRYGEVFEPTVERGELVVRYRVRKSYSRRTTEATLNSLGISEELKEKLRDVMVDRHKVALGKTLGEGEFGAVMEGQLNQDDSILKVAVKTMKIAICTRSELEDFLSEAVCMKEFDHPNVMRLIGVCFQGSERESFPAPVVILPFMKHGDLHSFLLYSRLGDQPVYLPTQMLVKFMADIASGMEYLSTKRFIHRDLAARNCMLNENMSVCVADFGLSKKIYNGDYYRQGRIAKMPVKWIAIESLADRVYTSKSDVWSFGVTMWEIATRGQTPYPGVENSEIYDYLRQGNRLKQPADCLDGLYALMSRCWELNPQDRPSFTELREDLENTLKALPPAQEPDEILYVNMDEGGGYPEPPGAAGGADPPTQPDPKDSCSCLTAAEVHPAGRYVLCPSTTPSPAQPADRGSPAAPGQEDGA
High affinity nerve growth factor receptor (Homo sapiens), sequence (P04629 33-796 limits assumed): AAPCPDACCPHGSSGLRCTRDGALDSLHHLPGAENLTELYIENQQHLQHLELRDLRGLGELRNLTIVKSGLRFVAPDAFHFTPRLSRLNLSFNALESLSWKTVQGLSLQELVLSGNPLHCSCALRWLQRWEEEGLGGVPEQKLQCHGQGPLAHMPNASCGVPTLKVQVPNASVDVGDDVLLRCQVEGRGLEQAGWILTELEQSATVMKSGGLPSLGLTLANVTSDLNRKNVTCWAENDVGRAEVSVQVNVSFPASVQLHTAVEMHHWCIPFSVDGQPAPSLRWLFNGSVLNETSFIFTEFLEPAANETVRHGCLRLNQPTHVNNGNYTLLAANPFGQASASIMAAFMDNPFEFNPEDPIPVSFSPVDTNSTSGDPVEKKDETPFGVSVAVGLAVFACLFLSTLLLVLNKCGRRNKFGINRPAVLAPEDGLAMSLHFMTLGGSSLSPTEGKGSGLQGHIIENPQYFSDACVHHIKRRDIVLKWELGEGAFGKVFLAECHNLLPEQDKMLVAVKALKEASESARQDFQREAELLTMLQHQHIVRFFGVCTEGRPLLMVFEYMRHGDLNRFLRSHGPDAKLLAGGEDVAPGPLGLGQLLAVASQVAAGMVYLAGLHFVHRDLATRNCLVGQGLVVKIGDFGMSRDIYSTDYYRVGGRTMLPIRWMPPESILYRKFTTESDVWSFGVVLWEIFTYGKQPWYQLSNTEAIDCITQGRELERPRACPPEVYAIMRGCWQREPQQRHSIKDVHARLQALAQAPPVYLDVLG

Q: With `c1ccc(-c2csc3ncnc(N4CCc5ccccc5C4)c23)cc1` as the compound, how does the Activity (SW-620 [1]) read?
A: 24.09%

Q: What about the Activity (SW-620 [2]) of the same compound?
A: 9.34%

Q: And the IC50 (CNE)?
A: > 100 µM

Q: And the IC50 (A549)?
A: > 100 µM

Q: What about the IC50 (MDA-MB-231) of the same compound?
A: > 100 µM

Q: And the IC50 (HCT-116)?
A: > 100 µM

Q: And the IC50 [3]?
A: > 100 µM

Q: And the IC50 (SK-HEP1)?
A: > 100 µM

Q: And the IC50 [4]?
A: 42.3 µM

Q: What about the IC50 (MCF7) of the same compound?
A: 27 µM

Q: What about the IC50 (HepG2) of the same compound?
A: 23.4 µM

Q: What about the IC50 (HeLa) of the same compound?
A: 20.8 µM

Q: And the IC50 (SK-OV-3)?
A: 20.6 µM

Q: And the IC50 (HGC-27)?
A: 17.4 µM

Q: What about the IC50 (A-375) of the same compound?
A: 15.2 µM

Q: What about the IC50 (PC-3) of the same compound?
A: 13.2 µM

Q: And the IC50 (SW-620 [5])?
A: 6.25 µM

Q: What about the inhibition (Aurora kinase B [6]) of the same compound?
A: Active

Q: What about the inhibition (Aurora kinase B [7]) of the same compound?
A: Active

Q: What about the inhibition (Aurora kinase B [8]) of the same compound?
A: Dose-dependent effect

Q: What about the inhibition (Aurora kinase B [9]) of the same compound?
A: Dose-dependent effect

Q: And the inhibition (Aurora kinase B [10])?
A: Active

Q: And the inhibition (Aurora kinase B [11])?
A: Dose-dependent effect

Q: And the inhibition (Aurora kinase B [12])?
A: Active

Q: What about the inhibition [13] of the same compound?
A: 1.42%

Q: And the inhibition (Homo sapiens)?
A: 1.77%

Q: And the inhibition [14]?
A: 3.02%

Q: And the inhibition [15]?
A: 2.58%

Q: And the inhibition [16]?
A: 9.63%

Q: What about the inhibition [17] of the same compound?
A: 4.18%

Q: What about the inhibition [18] of the same compound?
A: 1.86%

Q: What about the inhibition [19] of the same compound?
A: 13%

Q: And the inhibition [20]?
A: 1.69%

Q: What about the inhibition [21] of the same compound?
A: 3.37%

Q: And the inhibition [22]?
A: 27.7%

Q: What about the inhibition [23] of the same compound?
A: 6.5%

Q: And the inhibition [24]?
A: 5.32%

Q: What about the inhibition (Aurora kinase B [25]) of the same compound?
A: 74.4%

Q: And the inhibition [26]?
A: 65.3%

Q: And the inhibition (Aurora kinase B [27])?
A: Active

Q: What about the IC50 (Aurora kinase B [28]) of the same compound?
A: 0.141 µM

Q: What about the Activity (SW-620 [29]) of the same compound?
A: Dose-dependent effect

Q: What about the Activity (SW-620 [30]) of the same compound?
A: 13.2%

Q: And the Activity (SW-620 [31])?
A: 33.6%

Q: What about the “growth inhibition (GI)” value (SW-620 [32]) of the same compound?
A: inactive

Q: And the “growth inhibition (GI)” value (SW-620 [33])?
A: Active

Q: What about the “growth inhibition (GI)” value (SW-620 [34]) of the same compound?
A: Active

Q: And the Activity (SW-620 [35])?
A: 35.39%
